Here are results for one molecule from patent publication US20070255062A1, “Benzoyl Amino Pyridyl Carboxylic Acid Derivatives Useful as Glucokinase (Glk) Activators” (priority 2003, published 2007).

Series [1] is described as follows: Plasma protein binding by equilibrium dialysis. The class given is in vitro ADME. The conditions noted are these: rat, 18 hours at 37° C., plasma vs isotonic phosphate buffer pH 7.4, read-out: % free in plasma. Here is the method: Measurements of Plasma Protein Binding of Compounds
The plasma protein binding of compounds was measured using the equilibrium dialysis technique (W. Lindner et al, J. Chromatography, 1996, 677, 1-28). Compound was dialysed at a concentration of 20 μM for 18 hours at 37° C. with plasma and isotonic phosphate buffer pH 7.4 (1 ml of each in the dialysis cell). A Spectrum® 20-cell equilibrium dialyser was used together with Teflon, semi-micro dialysis cells and Spectra/Por®2 membrane discs with a molecular weight cut off 12-14000 Dalton, 47 mm (supplied by PerBio Science UK Ltd, Tattenhall, Cheshire). Plasma and buffer samples are removed following dialysis and analysed using HPLCUV/MS (high performance liquid chromatography with UV and mass spec detection) to give the % free level in plasma.

Series [2] in a line: Plasma levels following oral administration to rats. It counts as in vivo. The conditions noted are these: rat, oral gavage, normalised dose of 1 mg of compound per kilogram of rat body weight. On the procedure:
Measurement of Plasma Levels and Plasma Protein Binding Following Oral Administration to Rats
Planetary Milled compounds [15 mins, 500 rpm, 5 Zirconium Balls, in a Puluerisette 7 Mill (Glen Creston Ltd, Stanmore, Middlesex, UK)] were suspended in 0.5% HPMC Tween and dosed to High Fat Fed (Research Diets, D12451, ad lib feeding 14 days) Female Alderley Park Zucker or Alderley Park Wistar rats at rate of 5 mls/kg, at doses between 0.3 and 10 mg/kg by oral gavage.
Samples of plasma were obtained either by conscious blood sampling or terminal blood sampling as follows:
Conscious blood sampling (for compound level or blood chemistry)—Intravenous blood samples were taken from tail vein using 600 μL Starstedt Multivette (EDTA) and 22 G needle at the required time point. […]
The reconstituted samples were then analysed using high performance liquid chromatography with tandem mass spectrometry detection (HPLC-MS-MS)”. […]
The concentration of test samples was determined from the ratio of the peak height of the test sample to the peak height of the internal standard. The concentration of the test sample was calculated with reference to a standard curve relating the ratio to the concentration prepared by using known concentrations of test sample added to samples of rat plasma using (3-isopropoxy-5-benzyoxy-benzoyl)amino pyridine 3-carboxylic acid as an internal standard, treated as described above.

The next series deals with T1, glucokinase (GLK) (Homo sapiens, UniProt P35557).
T1 construct: 6-His (N); made in house; host or cells: E. coli BL21 (vector pTB375NBSE)
T1 sequence (P35557 1-466 isoform P35557-2): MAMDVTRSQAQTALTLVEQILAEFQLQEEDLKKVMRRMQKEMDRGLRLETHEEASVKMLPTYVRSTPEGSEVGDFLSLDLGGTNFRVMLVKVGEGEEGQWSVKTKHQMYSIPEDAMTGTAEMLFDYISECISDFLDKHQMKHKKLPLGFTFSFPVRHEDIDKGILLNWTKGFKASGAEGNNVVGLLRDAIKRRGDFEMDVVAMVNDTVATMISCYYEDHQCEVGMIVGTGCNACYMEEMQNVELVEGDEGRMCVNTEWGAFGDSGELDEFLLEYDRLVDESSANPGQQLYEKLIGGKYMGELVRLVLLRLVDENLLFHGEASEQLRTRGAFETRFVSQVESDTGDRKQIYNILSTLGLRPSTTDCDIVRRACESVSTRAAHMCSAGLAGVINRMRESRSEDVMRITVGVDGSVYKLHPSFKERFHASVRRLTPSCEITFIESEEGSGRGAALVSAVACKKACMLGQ
Kind of series: Enzymatic activity of GLK (G-6-P dehydrogenase, NADP/NADPH coupled assay), activation by compounds. The class given is biochemical. The following applies: read-out: EC50 (activating activity for glucokinase). Here is the method:
(1) Enzymatic activity of GLK may be measured by incubating GLK, ATP and glucose. The rate of product formation may be determined by coupling the assay to a G-6-P dehydrogenase, NADP/NADPH system and measuring the linear increase in optical density at 340 nm (atschinsky et al 1993). Activation of GLK by compounds can be assessed using this assay in the presence or absence of GLKRP (GLK regulatory protein) as described in Brocklehurst et al (Diabetes 2004, 53, 535-541).
GLK was expressed from the vector pTB375NBSE in E.coli BL21 cells, producing a recombinant protein containing a 6-His tag immediately adjacent to the N-terminal methionine. Alternatively, another suitable vector is pET21(+)DNA, Novagen, Cat number 697703. The 6-His tag was used to allow purification of the recombinant protein on a column packed with nickel-nitrilotriacetic acid agarose purchased from Qiagen (cat no 30250).

Series [3] is described as follows: Estimation of plasma half-life. The class given is in vivo. The following applies: rat, typically determined following intravenous administration, semilogarithmic plot, read-out: t½ (half life in plasma) (converted). The source says:
Estimation of Plasma Half-Life
The plasma half-life is the time taken for the concentration of compound in the plasma to decline to half of its original value. This is typically determined following intravenous administration of the test compound, followed by measurement of the compound concentrations in plasma samples as described above. The plasma half-life is estimated from a semilogarithmic plot, plotting the log of the plasma concentration (lnCp) against sample time (t, linear). The apparent first-order elimination rate constant, k, is equal to the slope of the line, and the elimination half-life (t1/2) is […] (Gibaldi, M and Perrier, D, 1975 Pharmacokinetics, Marcel Dekker, New York): [formula]

Take `COC[C@H](C)Oc1cc(Oc2cccc(C)c2)cc(C(=O)Nc2ccc(C(=O)O)cn2)c1` [Example 1, 6-[3-{(1S)-1-methyl-2-methoxy-ethoxy}-5-{3-methylphenoxy}phenylcarbonylamino]pyridine-3-carboxylic acid]: the fraction unbound at 18 h, 20 μM in series [1] stood at 0.0076. For the same molecule, the “Peak Blood levels (including both bound and free)” value in series [2] worked out at 2.06 µM. Besides, on glucokinase (GLK), the EC50 was found to be 110 nM. The half-life in series [3] is 6.4 h.

What is called EC50 is the midpoint of the concentration-response curve. As usually defined, the half-life is the time in which the quantity being followed falls by half.
